# ChEMBL document CHEMBL5046281, “N-Aryl Mercaptopropionamides as Broad-Spectrum Inhibitors of Metallo-β-Lactamases” (J Med Chem, 2022)
# Active and inactive are the calls of the source. The calls are words filed in the database; no cut-off is given here.
# Legend:
# [1] = target: T1, Interstitial collagenase (Homo sapiens) (UniProt P03956); assay: Inhibition of human MMP-1 at 100 uM relative to control
# T1 sequence (whole entry): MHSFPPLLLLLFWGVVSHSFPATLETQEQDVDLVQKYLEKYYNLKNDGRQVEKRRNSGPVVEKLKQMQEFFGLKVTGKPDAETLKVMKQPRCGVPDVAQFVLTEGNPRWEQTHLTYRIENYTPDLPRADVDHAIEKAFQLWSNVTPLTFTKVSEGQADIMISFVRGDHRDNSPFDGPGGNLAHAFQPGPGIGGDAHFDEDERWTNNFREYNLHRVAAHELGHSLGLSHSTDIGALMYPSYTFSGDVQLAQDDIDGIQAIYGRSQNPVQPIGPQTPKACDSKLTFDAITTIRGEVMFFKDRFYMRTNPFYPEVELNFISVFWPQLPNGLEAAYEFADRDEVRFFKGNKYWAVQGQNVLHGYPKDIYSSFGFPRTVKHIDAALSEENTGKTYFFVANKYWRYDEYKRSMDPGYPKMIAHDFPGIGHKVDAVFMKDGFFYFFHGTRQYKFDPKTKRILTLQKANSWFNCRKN
# Escherichia coli [2] = assay: Potentiation of imipenem-induced antibacterial activity against NDM-1 producing Escherichia coli assessed as fold change in imipenem MIC at 16 ug/ml by microdilution method; format: functional; details: dose 16 µg/ml
# [3] = target: T2, Matrix metalloproteinase-14 (Homo sapiens, UniProt P50281); assay: Inhibition of human MMP-14
# Klebsiella pneumoniae [4] = assay: Antibacterial activity against imipenem-resistant NDM-1-producing Klebsiella pneumoniae T2301 infected in Galleria mellonella larvae assessed as survival rate at 38.4 ug injected via proleg measured after 1 day by Kaplan-Meier method; format: functional; details: dose 38.4 µg
# HEK293 = assay: Cytotoxicity against human HEK293 cells assessed as reduction in cell viability at 100 uM relative to control; format: toxicity, cell-based; details: hek293, 100 µM
# Escherichia coli [5] = assay: Potentiation of imipenem-induced antibacterial activity against NDM-7 producing Escherichia coli T2239 clinical isolates assessed as imipenem MIC at 128 mg/l by microdilution method; format: functional
# Escherichia coli [6] = assay: Potentiation of imipenem-induced antibacterial activity against NDM-1 producing Escherichia coli assessed as imipenem MIC at 4 ug/ml by microdilution method (reference value: 128 ug/ml); format: functional; details: dose 4 µg/ml
# Enterobacter cloacae = assay: Potentiation of imipenem-induced antibacterial activity against VIM-1 producing Enterobacter cloacae T2353 clinical isolates assessed as imipenem MIC at 128 mg/l by microdilution method; format: functional
# Escherichia coli [7] = assay: Potentiation of imipenem-induced antibacterial activity against NDM-1 producing Escherichia coli assessed as fold change in imipenem MIC at 8 ug/ml by microdilution method; format: functional; details: dose 8 µg/ml
# [8] = Selectivity ratio of MIC for antibacterial activity against NDM-7 producing Escherichia coli T2239 clinical isolates to MIC for potentiation of imipenem-induced antibacterial activity against NDM-7 producing Escherichia coli T2239 clinical isolates assessed as imipenem MIC at 128 mg/l; format: functional
# [9] = target: Stromelysin-1 (Homo sapiens) (UniProt P08254); assay: Inhibition of human MMP-3 at 100 uM relative to control
# A549 = assay: Cytotoxicity against human A549 cells assessed as reduction in cell viability at 100 uM relative to control; format: toxicity, cell-based; details: a549, 100 µM
# Klebsiella pneumoniae [10] = assay: Potentiation of imipenem-induced antibacterial activity against NDM-1 producing Klebsiella pneumoniae T2301 clinical isolates assessed as imipenem MIC at 128 mg/l by microdilution method; format: functional
# Escherichia coli [11] = assay: Potentiation of imipenem-induced antibacterial activity against NDM-1 producing Escherichia coli assessed as imipenem MIC at 2 ug/ml by microdilution method (reference value: 128 ug/ml); format: functional; details: dose 2 µg/ml
# Klebsiella pneumoniae [12] = assay: Synergistic antibacterial activity against NDM-1-producing Klebsiella pneumoniae T2301 clinical isolate assessed as fractional inhibitory concentration index in presence of imipenem by microdilution checkerboard assay; format: functional
# Escherichia coli [13] = assay: Potentiation of imipenem-induced antibacterial activity against NDM-1 producing Escherichia coli assessed as imipenem MIC at 32 ug/ml by microdilution method (reference value: 128 ug/ml); format: functional; details: dose 32 µg/ml
# [14] = Selectivity ratio of MIC for antibacterial activity against NDM-1 producing Serratia marcescens T2352 clinical isolates to MIC for potentiation of imipenem-induced antibacterial activity against NDM-1 producing Serratia marcescens T2352 clinical isolates assessed as imipenem MIC at 128 mg/l; format: functional
# Pseudomonas aeruginosa [15] = assay: Potentiation of imipenem-induced antibacterial activity against IMP-1 producing Pseudomonas aeruginosa T2325 clinical isolates assessed as imipenem MIC at 128 mg/l by microdilution method; format: functional
# Pseudomonas aeruginosa [16] = assay: Potentiation of imipenem-induced antibacterial activity against VIM-1 producing Pseudomonas aeruginosa T2357 clinical isolates assessed as imipenem MIC at 128 mg/l by microdilution method; format: functional
# [17] = Inhibition of Escherichia coli IMP-7 using fluorocillin as substrate incubated for 30 mins by fluorescence based assay
# [18] = target: T2, Matrix metalloproteinase-14; assay: Inhibition of human MMP-14 at 100 uM relative to control
# [19] = Selectivity ratio of MIC for antibacterial activity against NDM-5 producing Escherichia coli T2351 clinical isolates to MIC for potentiation of imipenem-induced antibacterial activity against NDM-5 producing Escherichia coli T2351 clinical isolates assessed as imipenem MIC at 128 mg/l; format: functional
# [20] = Selectivity ratio of MIC for antibacterial activity against GIM-1 producing Enterobacter cloacae T2218 clinical isolates to MIC for potentiation of imipenem-induced antibacterial activity against GIM-1 producing Enterobacter cloacae T2218 clinical isolates assessed as imipenem MIC at 128 mg/l; format: functional
# Escherichia coli [21] = assay: Potentiation of imipenem-induced antibacterial activity against NDM-1 producing Escherichia coli assessed as fold change in imipenem MIC at 2 ug/ml by microdilution method; format: functional; details: dose 2 µg/ml
# Escherichia coli [22] = assay: Potentiation of imipenem-induced antibacterial activity against NDM-1 producing Escherichia coli assessed as imipenem MIC at 16 ug/ml by microdilution method (reference value: 128 ug/ml); format: functional; details: dose 16 µg/ml
# Pseudomonas aeruginosa [23] = assay: Antibacterial activity against VIM-2 expressing Pseudomonas aeruginosa isolates assessed as inhibition of bacterial growth by microdilution method; format: functional, organism-based
# Escherichia coli [24] = assay: Potentiation of imipenem-induced antibacterial activity against NDM-5 producing Escherichia coli T2351 clinical isolates assessed as imipenem MIC at 128 mg/l by microdilution method; format: functional
# [25] = Selectivity ratio of MIC for antibacterial activity against IMP-1 producing Pseudomonas aeruginosa T2325 clinical isolates to MIC for potentiation of imipenem-induced antibacterial activity against IMP-1 producing Pseudomonas aeruginosa T2325 clinical isolates assessed as imipenem MIC at 128 mg/l; format: functional
# Klebsiella pneumoniae [26] = assay: Antibacterial activity against imipenem-resistant NDM-1-producing Klebsiella pneumoniae T2301 infected in Galleria mellonella larvae assessed as survival rate at 38.4 ug injected via proleg measured after 3 days in presence of imipenem by Kaplan-Meier method; format: functional; details: dose 38.4 µg; time 3 day
# [27] = Lipophilicity, log D of the compound at pH 7.4 by HPLC-MS analysis; format: physicochemical; details: buffer
# Chain of Stromelysin-1 (Homo sapiens) (P08254 100-477 limits assumed): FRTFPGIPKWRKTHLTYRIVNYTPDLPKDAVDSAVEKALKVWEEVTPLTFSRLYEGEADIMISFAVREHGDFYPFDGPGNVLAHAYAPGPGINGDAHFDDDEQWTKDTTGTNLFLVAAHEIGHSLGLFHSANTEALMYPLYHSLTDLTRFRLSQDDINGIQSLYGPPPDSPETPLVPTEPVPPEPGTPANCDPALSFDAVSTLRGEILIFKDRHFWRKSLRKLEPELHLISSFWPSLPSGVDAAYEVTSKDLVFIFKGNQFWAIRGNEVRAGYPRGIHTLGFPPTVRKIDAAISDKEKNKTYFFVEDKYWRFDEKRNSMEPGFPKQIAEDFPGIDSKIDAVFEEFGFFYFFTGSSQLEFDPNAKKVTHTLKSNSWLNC
structure (smiles),measurement,setting,value
O=C(CCS)Nc1cccc(C(=O)O)c1,inhibition,[1],< 10%
same,fold change (FC),Escherichia coli [2],2
same,IC50,[3],68 µM
same,Activity,Klebsiella pneumoniae [4],<20%
same,Activity,HEK293,< 10%
same,MIC,Escherichia coli [5],2 µg/mL
same,MIC,Escherichia coli [6],128 µg/mL
same,MIC,Enterobacter cloacae,2 µg/mL
same,fold change (FC),Escherichia coli [7],2
same,Ratio,[8],16
same,inhibition,[9],< 10%
same,Activity,A549,< 10%
same,MIC,Klebsiella pneumoniae [10],0.5 µg/mL
same,MIC,Escherichia coli [11],128 µg/mL
same,fractional inhibitory concentration index (FICI),Klebsiella pneumoniae [12],0.25
same,MIC,Escherichia coli [13],8 µg/mL
same,Ratio,[14],64
same,MIC,Pseudomonas aeruginosa [15],16 µg/mL
same,MIC,Pseudomonas aeruginosa [16],256 µg/mL
same,IC50,[17],6.4 µM
same,inhibition,[18],61%
same,Ratio,[19],4
same,Ratio,[20],1
same,fold change (FC),Escherichia coli [21],1
same,MIC,Escherichia coli [22],64 µg/mL
same,Activity,Pseudomonas aeruginosa [23],inactive
same,MIC,Escherichia coli [24],2 µg/mL
same,Ratio,[25],1
same,Activity,Klebsiella pneumoniae [26],<=56%
same,logD,[27],-0.96
